Experimental data from ChEMBL document CHEMBL1201862, “PubChem BioAssay data set” (2004).
The source made the active and inactive calls.

Tests used:
[1] = P. falciparum Dd2 growth inhibitors, dose response, SYBR Green, cherry-picked samples (AID 1159567); type: functional, cell-based
[2] = HepG2 cell cytotoxicity, dose response, cytotoxicity control, cherry-picked samples (AID 1159577); type: functional, cell-based
[3] = molecular target: G-protein coupled receptor 183 (Homo sapiens, UniProt P32249); test: SAR confirmation of small molecule antagonists of the EBI2 receptor via a luminescent beta-arrestin assa.; type: functional
[4] = molecular target: RNA-editing ligase 1, mitochondrial (Trypanosoma brucei brucei, UniProt P86926); test: TbREL1 ligase inhibitors, dose response, biochemical, fluorescence, Trypanosoma brucei (AID 1117295); type: functional
Sequence of RNA-editing ligase 1, mitochondrial (P86926 whole entry): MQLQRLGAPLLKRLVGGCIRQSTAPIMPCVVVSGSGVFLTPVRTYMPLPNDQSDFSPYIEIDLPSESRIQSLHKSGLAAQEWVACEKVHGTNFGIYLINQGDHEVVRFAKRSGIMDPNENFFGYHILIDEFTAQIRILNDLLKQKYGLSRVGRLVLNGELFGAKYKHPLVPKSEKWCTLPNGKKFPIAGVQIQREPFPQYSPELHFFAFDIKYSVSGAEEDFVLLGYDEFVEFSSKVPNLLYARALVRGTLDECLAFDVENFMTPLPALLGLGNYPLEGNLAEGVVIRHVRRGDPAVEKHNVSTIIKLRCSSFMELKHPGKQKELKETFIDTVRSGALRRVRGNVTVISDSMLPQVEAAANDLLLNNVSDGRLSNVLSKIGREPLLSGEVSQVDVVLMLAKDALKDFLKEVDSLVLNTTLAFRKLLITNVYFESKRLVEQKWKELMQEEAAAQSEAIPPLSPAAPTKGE

Sequence of G-protein coupled receptor 183 (P32249 whole entry): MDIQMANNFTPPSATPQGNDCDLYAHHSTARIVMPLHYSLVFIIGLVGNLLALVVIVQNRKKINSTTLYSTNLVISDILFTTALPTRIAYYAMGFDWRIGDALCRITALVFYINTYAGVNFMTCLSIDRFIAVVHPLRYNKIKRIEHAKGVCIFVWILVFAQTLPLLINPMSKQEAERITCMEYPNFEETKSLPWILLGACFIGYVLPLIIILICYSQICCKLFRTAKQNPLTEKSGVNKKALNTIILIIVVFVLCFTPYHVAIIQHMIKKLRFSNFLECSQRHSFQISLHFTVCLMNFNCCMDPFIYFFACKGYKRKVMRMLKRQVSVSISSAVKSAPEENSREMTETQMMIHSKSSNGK

| Structure (SMILES) | AC50 [1] | AC50 [2] | IC50 [3] | IC50 [4] |
| --- | --- | --- | --- | --- |
| CO[C@@H]1CN(C)C(=O)c2ccc(NC(=O)Nc3cccc(Cl)c3)cc2OC[C@@H](C)NC[C@H]1C | 5.07 µM (active) | 30.3 µM (active) |  |  |
| Cc1cc(C)cc(CN2CCN(C(=O)/C=C/c3ccc(Br)cc3)CC2)c1 |  |  | 0.0064 µM (active) |  |
| N#C[C@H]1[C@@H](c2ccc(C#CC3CCCC3)cc2)[C@@H](CO)N1S(=O)(=O)c1ccccc1 | 3.62 µM (active) | 24.8 µM (active) |  |  |
| O=C(c1ccc(Br)cc1)N1CCN(C(=O)c2ccccc2Cl)CC1 |  |  | > 1 µM (inactive) |  |
| Cc1cc(O)c2c(c1)C(=O)[C@@]13C(=C(O)[C@H]4C(O)[C@@H]1[C@H]1C(O)[C@@H]3C(O)=C3C(=O)c5c(O)cc(C)cc5C(=O)[C@@]314)C2=O (some centres not stated) |  |  |  | 4.1 µM (active) |
